Reference: US12441703B2, “Carboxamides as modulators of sodium channels” (VERTEX PHARMACEUTICALS INCORPORATED, priority 2019, dated 2025)

The compounds below were run against human NaV 1.8 (Homo sapiens, UniProt Q9Y5Y9) (assay: E-VIPR assay for detecting and measuring NaV inhibition properties). Conditions: E-VIPR assay conducted in the presence of human serum; HEK cells expressing truncated human NaV 1.8; read-out: IC50.
Assay type: cell-based
Procedure, shortened: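 Membrane-potential (coumarin/oxonol) readout after 10 s of 10 Hz biphasic electrical stimulation on E-VIPR. Compounds: 11-point 3-fold dilutions, […], 0.625% DMSO, 30 min at room temperature, human serum optional. Cells: HEK expressing truncated human NaV1.8 co-transduced with KIR2.1.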

Sequence of human NaV 1.8 (Q9Y5Y9 whole entry, looked up, the tested form may be a part): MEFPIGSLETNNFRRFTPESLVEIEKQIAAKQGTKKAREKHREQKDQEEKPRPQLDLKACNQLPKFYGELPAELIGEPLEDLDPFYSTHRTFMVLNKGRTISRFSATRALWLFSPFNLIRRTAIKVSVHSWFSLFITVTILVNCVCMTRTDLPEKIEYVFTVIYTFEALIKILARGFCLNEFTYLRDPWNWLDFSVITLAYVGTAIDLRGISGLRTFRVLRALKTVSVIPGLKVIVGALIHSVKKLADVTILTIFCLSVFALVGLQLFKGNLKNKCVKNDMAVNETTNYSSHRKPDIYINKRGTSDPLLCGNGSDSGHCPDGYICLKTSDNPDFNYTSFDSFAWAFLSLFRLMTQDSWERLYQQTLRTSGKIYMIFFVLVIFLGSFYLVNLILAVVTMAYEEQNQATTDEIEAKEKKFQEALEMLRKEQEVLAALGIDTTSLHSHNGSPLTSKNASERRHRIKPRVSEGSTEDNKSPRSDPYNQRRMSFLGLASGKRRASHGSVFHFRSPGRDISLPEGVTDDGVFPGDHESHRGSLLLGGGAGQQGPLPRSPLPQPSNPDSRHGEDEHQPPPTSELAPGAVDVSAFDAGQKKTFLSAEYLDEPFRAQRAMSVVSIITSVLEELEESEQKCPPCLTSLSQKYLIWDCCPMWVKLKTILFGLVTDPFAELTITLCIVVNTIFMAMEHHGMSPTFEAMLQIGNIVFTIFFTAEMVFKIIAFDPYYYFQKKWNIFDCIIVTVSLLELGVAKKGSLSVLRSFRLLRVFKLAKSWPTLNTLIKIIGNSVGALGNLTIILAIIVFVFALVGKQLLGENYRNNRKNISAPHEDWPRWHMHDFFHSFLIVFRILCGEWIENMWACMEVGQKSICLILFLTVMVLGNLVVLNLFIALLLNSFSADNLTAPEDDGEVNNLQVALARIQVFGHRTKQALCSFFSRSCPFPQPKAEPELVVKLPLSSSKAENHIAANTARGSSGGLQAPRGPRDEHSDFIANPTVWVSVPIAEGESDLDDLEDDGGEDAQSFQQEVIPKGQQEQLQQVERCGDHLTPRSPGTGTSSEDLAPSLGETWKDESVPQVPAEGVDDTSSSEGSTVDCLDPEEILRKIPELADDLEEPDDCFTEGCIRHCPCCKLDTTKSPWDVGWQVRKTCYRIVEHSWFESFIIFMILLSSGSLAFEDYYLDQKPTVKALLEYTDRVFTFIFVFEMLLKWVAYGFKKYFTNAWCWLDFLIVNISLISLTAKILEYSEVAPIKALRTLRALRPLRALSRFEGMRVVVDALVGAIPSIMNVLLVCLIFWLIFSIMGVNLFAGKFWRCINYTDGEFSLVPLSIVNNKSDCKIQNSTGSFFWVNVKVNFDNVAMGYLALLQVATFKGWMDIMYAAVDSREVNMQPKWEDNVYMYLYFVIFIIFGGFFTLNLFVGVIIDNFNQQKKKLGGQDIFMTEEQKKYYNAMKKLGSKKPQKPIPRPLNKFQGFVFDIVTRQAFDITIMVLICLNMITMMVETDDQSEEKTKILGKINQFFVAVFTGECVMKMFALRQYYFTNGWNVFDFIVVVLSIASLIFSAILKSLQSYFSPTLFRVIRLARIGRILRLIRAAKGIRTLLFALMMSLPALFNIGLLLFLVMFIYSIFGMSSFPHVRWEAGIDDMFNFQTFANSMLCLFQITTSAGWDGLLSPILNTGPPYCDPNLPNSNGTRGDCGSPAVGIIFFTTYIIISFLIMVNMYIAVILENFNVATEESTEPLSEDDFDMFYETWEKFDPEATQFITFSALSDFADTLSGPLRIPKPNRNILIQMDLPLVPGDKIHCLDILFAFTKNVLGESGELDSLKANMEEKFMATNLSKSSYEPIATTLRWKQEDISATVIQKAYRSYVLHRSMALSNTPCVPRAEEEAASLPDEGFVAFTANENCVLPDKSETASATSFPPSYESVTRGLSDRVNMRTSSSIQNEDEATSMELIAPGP

SMILES | IC50
Cc1c(C(F)(F)F)ccc(Oc2ccc(Cl)cc2F)c1C(=O)Nc1ccnc(C(N)=O)c1 [Compound 135, 4-[[6-(4-chloro-2-fluoro-phenoxy)-2-methyl-3-(trifluoromethyl)benzoyl]amino]pyridine-2-carboxamide] | 470 nM
Cc1cc(Cl)ccc1Oc1ccc(C(F)(F)F)c(C)c1C(=O)Nc1ccnc(C(N)=O)c1 [Compound 136, 4-[[6-(4-chloro-2-methyl-phenoxy)-2-methyl-3-(trifluoromethyl)benzoyl]amino]pyridine-2-carboxamide] | 140 nM
COc1cc(F)ccc1Oc1ccc(C(F)(F)F)c(C)c1C(=O)Nc1ccnc(C(N)=O)c1 [Compound 137, 4-[[6-(4-fluoro-2-methoxy-phenoxy)-2-methyl-3-(trifluoromethyl)benzoyl]amino]pyridine-2-carboxamide] | 54 nM
Cc1c(C(F)(F)F)ccc(Oc2ccc(OC(F)(F)F)c(Cl)c2)c1C(=O)Nc1ccnc(C(N)=O)c1 [Compound 138, 4-[[6-[3-chloro-4-(trifluoromethoxy)phenoxy]-2-methyl-3-(trifluoromethyl)benzoyl]amino]pyridine-2-carboxamide] | 20 nM
Cc1c(C(F)(F)F)ccc(Oc2ccc(OC(F)(F)F)c(F)c2)c1C(=O)Nc1ccnc(C(N)=O)c1 [Compound 139, 4-[[6-[3-fluoro-4-(trifluoromethoxy)phenoxy]-2-methyl-3-(trifluoromethyl)benzoyl]amino]pyridine-2-carboxamide] | 33 nM
Cc1c(C(F)(F)F)ccc(Oc2ccc(F)c(F)c2F)c1C(=O)Nc1ccnc(C(N)=O)c1 [Compound 140, 4-[[2-methyl-3-(trifluoromethyl)-6-(2,3,4-trifluorophenoxy)benzoyl]amino]pyridine-2-carboxamide] | 68 nM
Cc1c(F)ccc(Oc2ccc(C(F)(F)F)c(C)c2C(=O)Nc2ccnc(C(N)=O)c2)c1C [Compound 141, 4-[[6-(4-fluoro-2,3-dimethyl-phenoxy)-2-methyl-3-(trifluoromethyl)benzoyl]amino]pyridine-2-carboxamide] | 220 nM
Cc1cc(Cl)cc(Cl)c1Oc1ccc(C(F)(F)F)c(C)c1C(=O)Nc1ccnc(C(N)=O)c1 [Compound 142, 4-[[6-(2,4-dichloro-6-methyl-phenoxy)-2-methyl-3-(trifluoromethyl)benzoyl]amino]pyridine-2-carboxamide] | 1700 nM
Cc1c(C(F)(F)F)ccc(Oc2c(F)cc(F)cc2F)c1C(=O)Nc1ccnc(C(N)=O)c1 [Compound 143, 4-[[2-methyl-3-(trifluoromethyl)-6-(2,4,6-trifluorophenoxy)benzoyl]amino]pyridine-2-carboxamide] | > 3000 nM
Cc1cc(Cl)cc(C)c1Oc1ccc(C(F)(F)F)c(C)c1C(=O)Nc1ccnc(C(N)=O)c1 [Compound 144, 4-[[6-(4-chloro-2,6-dimethyl-phenoxy)-2-methyl-3-(trifluoromethyl)benzoyl]amino]pyridine-2-carboxamide] | 765 nM
COc1cc(C)cc(OC)c1Oc1ccc(C(F)(F)F)c(C)c1C(=O)Nc1ccnc(C(N)=O)c1 [Compound 145, 4-[[6-(2,6-dimethoxy-4-methyl-phenoxy)-2-methyl-3-(trifluoromethyl)benzoyl]amino]pyridine-2-carboxamide] | > 3000 nM
Cc1c(C(F)(F)F)ccc(Oc2ccc(OC(F)(F)F)cc2Cl)c1C(=O)Nc1ccnc(C(N)=O)c1 [Compound 146, 4-[[6-[2-chloro-4-(trifluoromethoxy)phenoxy]-2-methyl-3-(trifluoromethyl)benzoyl]amino]pyridine-2-carboxamide] | 17 nM
COc1c(Oc2ccc(C(F)(F)F)c(C)c2C(=O)Nc2ccnc(C(N)=O)c2)ccc(OC(F)(F)F)c1F [Compound 147, 4-[[6-[3-fluoro-2-methoxy-4-(trifluoromethoxy)phenoxy]-2-methyl-3-(trifluoromethyl)benzoyl]amino]pyridine-2-carboxamide] | 3 nM
Cc1c(C(F)(F)F)ccc(Oc2ccc(OC(F)(F)F)cc2C2CC2)c1C(=O)Nc1ccnc(C(N)=O)c1 [Compound 148, 4-[[6-[2-cyclopropyl-4-(trifluoromethoxy)phenoxy]-2-methyl-3-(trifluoromethyl)benzoyl]amino]pyridine-2-carboxamide] | 9 nM
Cc1c(Oc2ccc(C(F)(F)F)c(C)c2C(=O)Nc2ccnc(C(N)=O)c2)ccc(F)c1F [Compound 149, 4-[[6-(3,4-difluoro-2-methyl-phenoxy)-2-methyl-3-(trifluoromethyl)benzoyl]amino]pyridine-2-carboxamide] | 19 nM
COc1cc(OC(F)(F)F)ccc1Oc1ccc(C(F)(F)F)c(F)c1C(=O)Nc1cc[n+]([O-])c(C(N)=O)c1 [Compound 150, 4-[[2-fluoro-6-[2-methoxy-4-(trifluoromethoxy)phenoxy]-3-(trifluoromethyl)benzoyl]amino]-1-oxido-pyridin-1-ium-2-carboxamide] | 2 nM
COc1cc(OC(F)(F)F)ccc1Oc1ccc(C(F)(F)F)c(C)c1C(=O)Nc1ccnc(C(N)=O)c1 [Compound 151, 4-[[6-[2-methoxy-4-(trifluoromethoxy)phenoxy]-2-methyl-3-(trifluoromethyl)benzoyl]amino]pyridine-2-carboxamide] | 4 nM
COc1cc(OC(F)(F)F)ccc1Oc1ccc(C(F)(F)F)c(C)c1C(=O)Nc1ccc(C(N)=O)nc1 [Compound 152] | 12 nM

SMILES | IC50
COc1cc(OC(F)(F)F)ccc1Oc1ccc(C(F)(F)F)c(C)c1C(=O)Nc1cc(C(N)=O)ncc1C [Compound 153] | 7 nM
COc1cc(OC(F)(F)F)ccc1Oc1cc(-c2ccoc2)ccc1C(=O)Nc1ccnc(C(N)=O)c1 [Compound 154, 4-[[4-(3-furyl)-2-[2-methoxy-4-(trifluoromethoxy)phenoxy]benzoyl]amino]pyridine-2-carboxamide] | 988 nM
COc1cc(OC(F)(F)F)ccc1Oc1cc(-c2ccc(Cl)cc2)ccc1C(=O)Nc1ccnc(C(N)=O)c1 [Compound 155, 4-[[4-(4-chlorophenyl)-2-[2-methoxy-4-(trifluoromethoxy)phenoxy]benzoyl]amino]pyridine-2-carboxamide] | 505 nM
COc1cc(OC(F)(F)F)ccc1Oc1cc(-c2ccc(F)cc2)ccc1C(=O)Nc1ccnc(C(N)=O)c1 [Compound 156, 4-[[4-(4-fluorophenyl)-2-[2-methoxy-4-(trifluoromethoxy)phenoxy]benzoyl]amino]pyridine-2-carboxamide] | 730 nM
COc1cc(OC(F)(F)F)ccc1Oc1cc(-c2ccc(C(F)(F)F)cc2)ccc1C(=O)Nc1ccnc(C(N)=O)c1 [Compound 157, 4-[[2-[2-methoxy-4-(trifluoromethoxy)phenoxy]-4-[4-(trifluoromethyl)phenyl]benzoyl]amino]pyridine-2-carboxamide] | 408 nM
COc1cc(F)ccc1Oc1cc(C(F)(F)F)ccc1C(=O)Nc1ccnc(C(N)=O)c1 [Compound 159, 4-[[2-(4-fluoro-2-methoxy-phenoxy)-4-(trifluoromethyl)benzoyl]amino]pyridine-2-carboxamide] | > 3000 nM
CC(C)Oc1ccc(Oc2cc(C(F)(F)F)ccc2C(=O)Nc2ccnc(C(N)=O)c2)cc1F [Compound 160, 4-[[2-(3-fluoro-4-isopropoxy-phenoxy)-4-(trifluoromethyl)benzoyl]amino]pyridine-2-carboxamide] | > 3000 nM
NC(=O)c1cc(NC(=O)c2ccc(C(F)(F)F)cc2Oc2ccc(F)cc2Cl)ccn1 [Compound 161, 4-[[2-(2-chloro-4-fluoro-phenoxy)-4-(trifluoromethyl)benzoyl]amino]pyridine-2-carboxamide] | > 3000 nM
NC(=O)c1cc(NC(=O)c2ccc(C(F)(F)F)cc2Oc2ccc(F)c(F)c2)ccn1 [Compound 163, 4-[[2-(3,4-difluorophenoxy)-4-(trifluoromethyl)benzoyl]amino]pyridine-2-carboxamide] | > 3000 nM
CC(C)Oc1ccc(Oc2cc(C(F)(F)F)ccc2C(=O)Nc2ccnc(C(N)=O)c2)cc1 [Compound 164, 4-[[2-(4-isopropoxyphenoxy)-4-(trifluoromethyl)benzoyl]amino]pyridine-2-carboxamide] | > 3000 nM
NC(=O)c1cc(NC(=O)c2ccc(C(F)(F)F)cc2Oc2ccc(F)c3c2OCC3)ccn1 [Compound 165, 4-[[2-[(4-fluoro-2,3-dihydrobenzofuran-7-yl)oxy]-4-(trifluoromethyl)benzoyl]amino]pyridine-2-carboxamide] | > 3000 nM
Cc1cc(Oc2cc(C(F)(F)F)ccc2C(=O)Nc2ccnc(C(N)=O)c2)ccc1F [Compound 166, 4-[[2-(4-fluoro-3-methyl-phenoxy)-4-(trifluoromethyl)benzoyl]amino]pyridine-2-carboxamide] | > 3000 nM
COc1cc(Oc2cc(C(F)(F)F)ccc2C(=O)Nc2ccnc(C(N)=O)c2)ccc1F [Compound 167, 4-[[2-(4-fluoro-3-methoxy-phenoxy)-4-(trifluoromethyl)benzoyl]amino]pyridine-2-carboxamide] | > 3000 nM
COc1cc(OC(F)(F)F)ccc1Oc1cc(-c2ccc(F)cc2)cc(F)c1C(=O)Nc1ccc(C(N)=O)nc1 [Compound 170, 5-[[2-fluoro-4-(4-fluorophenyl)-6-[2-methoxy-4-(trifluoromethoxy)phenoxy]benzoyl]amino]pyridine-2-carboxamide] | 230 nM
COc1cc(OC(F)(F)F)ccc1Oc1cc(-c2ccc(Cl)cc2)cc(F)c1C(=O)Nc1ccnc(C(N)=O)c1 [Compound 171, 4-[[4-(4-chlorophenyl)-2-fluoro-6-[2-methoxy-4-(trifluoromethoxy)phenoxy]benzoyl]amino]pyridine-2-carboxamide] | 9 nM
COc1cc(OC(F)(F)F)ccc1Oc1cc(-c2ccc(C(C)(C)C)cc2)cc(F)c1C(=O)Nc1ccnc(C(N)=O)c1 [Compound 172] | 50 nM
[2H]C([2H])([2H])Oc1cc(OC(F)(F)F)ccc1Oc1cc(C(F)(F)F)cnc1C(=O)Nc1ccnc(C(N)=O)c1 [Compound 173, N-(2-carbamoyl-4-pyridyl)-3-[2-(trideuteriomethoxy)-4-(trifluoromethoxy)phenoxy]-5-(trifluoromethyl)pyridine-2-carboxamide] | 1300 nM
